This passage reports kinact/KI results from patent US5952321A, “Substituted azetidinones as anti-inflammatory and antidegenerative agents” (Merck & Co., Inc., priority 1996, dated 1999).

In one assay the target is T1, Human Polymorphonuclear Leukocyte Elastase (Homo sapiens, UniProt P08246).
T1 sequence (P08246 30-267): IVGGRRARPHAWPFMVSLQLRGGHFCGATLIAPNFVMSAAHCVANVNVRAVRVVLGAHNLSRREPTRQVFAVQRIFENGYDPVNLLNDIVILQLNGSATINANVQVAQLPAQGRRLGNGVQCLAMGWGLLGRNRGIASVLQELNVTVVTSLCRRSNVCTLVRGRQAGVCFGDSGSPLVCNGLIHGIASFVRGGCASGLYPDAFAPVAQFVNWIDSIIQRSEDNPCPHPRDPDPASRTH
Briefly: Inhibition of human polymorphonuclear leukocyte elastase via hydrolysis of Boc-AAPAN or Boc-AAPVN. Particulars: pH 7.5, Table I; second order rate constant for inactivation of the enzyme; read-out: Kobs /[I]. Format: biochemical. As for the experimental part:
Enzyme Assays for the Inhibition of Human Polymorphonuclear Leukocyte Elastase Via Hydrolysis of N-t-Boc-alanyl-alanyl-prolylalanine-p-nitroanilide (Boc-AAPAN) or […] (Boc-AAPVN) Reagent:
0.05M TES (N-tris[hydroxymethyl]methyl-2-amino-ethanesulfonic acid) Buffer, pH 7.5.
0.2 mM Boc-AAPAN or Boc-AAPVN.
To prepare substrate, the solid was first dissolved in 10.0 ml DMSO. Buffer at pH 7.5 was then added to a final volume of 100 ml.
Crude extract of human polymorphonuclear leukocytes (PMN) containing elastase activity.
Inhibitors (azetidinones) to be tested dissolved in DMSO just before use.
To 1.0 ml of 0.2 mM Boc-AAPAN in a cuvette, 0.01-0.1 ml of DMSO with or without inhibitor was added. After mixing, a measurement was taken at 410 mμ to detect any spontaneous hydrolysis due to presence of test compound. 0.05 Milliliters of PMN extract was then added and the ΔOD/min at 410 mμ was measured and recorded. Beckman model 35 spectrophotometer was used.
Results in Tables I to III were reported as ID50, effective dosage in micrograms per milliliter (μg/ml) for 50% inhibition of the enzyme activity 2 minutes after zero time.
Results were also expressed as Ki, the micromolar concentration of the inhibitor (μM) giving 50% of the control enzyme activity; or as ^k obs/I which is the second order rate constant in per mole per second for inactivation of the enzyme.
The elastase activity in the crude PMN extract may vary from one preparation to another. A control of each new batch is run, and the volume added in the assay procedure is adjusted according to activity.
As for `CCC[C@@H](NC(=O)N1C(=O)C(CC)(CC)[C@@H]1Oc1ccc(CN(C)CC2CCCO2)cc1)c1ccc(C)cc1` (stereo partly shown) [R4=Me; R5=CH2 CH(CH2 CH2 CH2 O); R6=H], the kinact/KI was determined as 1e+06 M⁻¹ s⁻¹. On to `CCCCN(C)C(=O)OCCN(C)Cc1ccc(O[C@@H]2N(C(=O)N[C@H](CCC)c3ccc(C)cc3)C(=O)C2(CC)CC)cc1` [R4=Me; R5=CH2 CH2 OCON(Me)n-Bu; R6=H], for which the kinact/KI turned out to be 1.3e+06 M⁻¹ s⁻¹. `CCC[C@@H](NC(=O)N1C(=O)C(CC)(CC)[C@@H]1Oc1ccc(CNC(C)=O)cc1)c1ccc(C)cc1` [R4=H; R5=Ac; R6=H, (4S)-3,3-Diethyl-1-[(R)-α-(n-propyl)-4-(methyl)benzylaminocarbonyl]-4-[(4-(N-acetyl)aminomethyl)phenoxy]azetidin-2-one]: the kinact/KI was found to be 750000 M⁻¹ s⁻¹.

As for `CCC[C@@H](NC(=O)N1C(=O)C(CC)(CC)[C@@H]1Oc1ccc(CNC(=O)NC(C)C)cc1)c1ccc(C)cc1` [R4=H; R5=CONH isoPr; R6=H, (4S)-3,3-Diethyl-1-[(R)-α-(n-propyl)-4-(methyl)benzylaminocarbonyl]-4-[(4-((N-isopropyl)aminocarbonyl)aminomethyl)phenoxy]azetidin-2-one], the kinact/KI was found to be 1.1e+06 M⁻¹ s⁻¹. On to `CCC[C@@H](NC(=O)N1C(=O)C(CC)(CC)[C@@H]1Oc1ccc(C(C)N(C)CCOCCOC)cc1)c1ccc(C)cc1` (stereo partly shown) [R4=Me; R5=CH2 CH2 OCH2 CH2 OMe; R6=Me], for which the kinact/KI is 825000 M⁻¹ s⁻¹.

As to `CCC[C@@H](NC(=O)N1C(=O)C(CC)(CC)[C@@H]1Oc1ccc(CNC(=O)Cc2cccnc2)cc1)c1ccc(C)cc1` [R4=H; R5=COCH2-3-pyridyl; R6=H, (4S)-3,3-Diethyl-1-[(R)-α-(n-propyl)-4-(methyl)benzylaminocarbonyl]-4-[(4-((3-pyridyl)methylcarbonyl)aminomethyl)phenoxy]azetidin-2-one], the kinact/KI stood at 1.25e+06 M⁻¹ s⁻¹. Take `CCC[C@@H](NC(=O)N1C(=O)C(CC)(CC)[C@@H]1Oc1ccc(CN(C)CCO)cc1)c1ccc(C)cc1` [R4=Me; R5=CH2 CH2 OH; R6=H]: the kinact/KI is 560000 M⁻¹ s⁻¹. For the molecule `CCC[C@@H](NC(=O)N1C(=O)C(CC)(CC)[C@@H]1Oc1ccc(CN2CCN(C(=O)N(CC)CC)CC2)cc1)c1ccc(C)cc1`, the kinact/KI was found to be 1.4e+06 M⁻¹ s⁻¹.

Take `CCC[C@@H](NC(=O)N1C(=O)C(CC)(CC)[C@@H]1Oc1ccc(CN(C)CCOC(=O)NC(C)C)cc1)c1ccc(C)cc1` [R4=Me; R5=CH2 CH2 OCONH(i-Pr); R6=H]: the kinact/KI was 1.85e+06 M⁻¹ s⁻¹. On the same count and under the same terms, the value for `CCC[C@@H](NC(=O)N1C(=O)C(CC)(CC)[C@@H]1Oc1ccc(C2CCCN2CCOCC)cc1)c1ccc(C)cc1` (stereo partly shown) [R4=CH2 CH2 OEt; R5+R6=--CH2 CH2 CH2 --] was 1.1e+06 M⁻¹ s⁻¹; that for `CCC[C@@H](NC(=O)N1C(=O)C(CC)(CC)[C@@H]1Oc1ccc(CN(CC)CCNC(C)=O)cc1)c1ccc(C)cc1` [R4=Et; R5=CH2 CH2 NHAc; R6=H] was 850000 M⁻¹ s⁻¹; that for `CCC[C@@H](NC(=O)N1C(=O)C(CC)(CC)[C@@H]1Oc1ccc(CN2CCC(O)CC2)cc1)c1ccc(C)cc1` [R4+R5=--CH2 CH2 CH(OH)CH2 CH2 --; R6=H] was 1.15e+06 M⁻¹ s⁻¹.

As to `CCC[C@@H](NC(=O)N1C(=O)C(CC)(CC)[C@@H]1Oc1ccc(CN(C)CCOCCOC)cc1)c1ccc(C)cc1` [R4=Me; R5=CH2 CH2 OCH2 CH2 OMe; R6=H], the kinact/KI turned out to be 1.9e+06 M⁻¹ s⁻¹.

As to `CCC[C@@H](NC(=O)N1C(=O)C(CC)(CC)[C@@H]1Oc1ccc(C(CC)N(C)CCOC)cc1)c1ccc(C)cc1` (stereo partly shown) [R4=Me; R5=CH2 CH2 OMe; R6=Et], the kinact/KI came to 550000 M⁻¹ s⁻¹. The same measure, in the same setting: the figure for `CCC[C@@H](NC(=O)N1C(=O)C(CC)(CC)[C@@H]1Oc1ccc(CN(C)CCOCC)cc1)c1ccc(C)cc1` [R4=Me; R5=CH2 CH2 OEt; R6=H, (4S)-3,3-Diethyl-1-[(R)-α-n-propyl-(4-methyl)benzylaminocarbonyl]-4-[(4-(2-ethoxyethyl)methylaminomethyl)phenoxy]azetidin-2-one] is 600000 M⁻¹ s⁻¹; for `CCC[C@@H](NC(=O)N1C(=O)C(CC)(CC)[C@@H]1Oc1ccc(CN2CCC[C@H]2CO)cc1)c1ccc(C)cc1` [R4+R5=--CH2 CH2 CH2 CH(S--CH2 OH); R6=H] it is 950000 M⁻¹ s⁻¹. With `CCC[C@@H](NC(=O)N1C(=O)C(CC)(CC)[C@@H]1Oc1ccc(CN(C)Cc2ccccc2)cc1)c1ccc(C)cc1` [R4=Me; R5=Bn; R6=H], the kinact/KI was 400000 M⁻¹ s⁻¹. Consider `CCC[C@@H](NC(=O)N1C(=O)C(CC)(CC)[C@@H]1Oc1ccc(CN(C)CCOc2ccccc2)cc1)c1ccc(C)cc1` [R4=Me; R5=CH2 CH2 OPh; R6=H], for which the kinact/KI came out at 750000 M⁻¹ s⁻¹. Same read-out and setting: the figure for `CCC[C@@H](NC(=O)N1C(=O)C(CC)(CC)[C@@H]1Oc1ccc(CN(C)CCOC(=O)N(CC)CC)cc1)c1ccc(C)cc1` [R4=Me; R5=CH2 CH2 OCONEt2; R6=H] is 1.23e+06 M⁻¹ s⁻¹; for `CCC[C@@H](NC(=O)N1C(=O)C(CC)(CC)[C@@H]1Oc1ccc(CN(C)CCN(C)C(C)=O)cc1)c1ccc(C)cc1` [R4=Me; R5=CH2 CH2 N(Me)Ac; R6=H] it is 650000 M⁻¹ s⁻¹. With `CCC[C@@H](NC(=O)N1C(=O)C(CC)(CC)[C@@H]1Oc1ccc([C@@H](C)N(C)CCOC)cc1)c1ccc(C)cc1` [R4=Me; R5=CH2 CH2 OMe; R6=(R)--Me, (4S)-3,3-diethyl-4-{(R)-4-[1-((2-methoxyethyl)methylamino)ethyl]phenoxy}-1-[(R)-α-n-propyl-(4-methyl)benzylaminocarbonyl]azetidin-2-one], the kinact/KI is 525000 M⁻¹ s⁻¹. Regarding `CCC[C@@H](NC(=O)N1C(=O)C(CC)(CC)[C@@H]1Oc1ccc(C(C)N(C)CCOC(=O)N(C)C)cc1)c1ccc(C)cc1` (stereo partly shown) [R4=Me; R5=CH2 CH2 OCONMe2; R6=Me], the kinact/KI was 925000 M⁻¹ s⁻¹. Consider `CCC[C@@H](NC(=O)N1C(=O)C(CC)(CC)[C@@H]1Oc1ccc(CNC(=O)CN(C)Cc2ccccc2)cc1)c1ccc(C)cc1` [R4=H; R5=COCH2 N(Me)Bn; R6=H], for which the kinact/KI turned out to be 1.4e+06 M⁻¹ s⁻¹. On the same count and under the same terms, the figure for `CCC[C@@H](NC(=O)N1C(=O)C(CC)(CC)[C@@H]1Oc1ccc(CN(C)CCOC(=O)C(C)(C)C)cc1)c1ccc(C)cc1` [R4=Me; R5=CH2 CH2 OCOCMe3; R6=H] is 230000 M⁻¹ s⁻¹; for `CCC[C@@H](NC(=O)N1C(=O)C(CC)(CC)[C@@H]1Oc1ccc(CN2C(C)CCC2C)cc1)c1ccc(C)cc1` (stereo partly shown) [R4+R5=--CHMeCH2 CH2 CHMe--; R6=H] it is 670000 M⁻¹ s⁻¹. Take `CCC[C@@H](NC(=O)N1C(=O)C(CC)(CC)[C@@H]1Oc1ccc(C(C)N(CC)CCOC)cc1)c1ccc(C)cc1` (stereo partly shown) [R4=Et; R5=CH2 CH2 OMe; R6=Me]: the kinact/KI was found to be 600000 M⁻¹ s⁻¹. Turning to `CCC[C@@H](NC(=O)N1C(=O)C(CC)(CC)[C@@H]1Oc1ccc(CNC(=O)Cc2c[nH]cn2)cc1)c1ccc(C)cc1` [R4=H; R5=COCH2-4-imidazolyl; R6=H, (4S)-3,3-Diethyl-1-[(R)-α-(n-propyl)-4-(methyl)benzylaminocarbonyl]-4-[(4-((4-imidazolyl)methylcarbonyl)aminomethyl)phenoxy]azetidin-2-one], the kinact/KI was 850000 M⁻¹ s⁻¹.

The same assay, now with this note: pH 7.5, Table II; second order rate constant for inactivation of the enzyme; read-out: Kobs /[I].
As for `CCC[C@@H](NC(=O)N1C(=O)C(CC)(CC)[C@@H]1Oc1ccc(CCCN(CC)CC)cc1)c1ccc(C)cc1` [R4=Et; R5=Et; n=3], the kinact/KI amounted to 540000 M⁻¹ s⁻¹.

On to `CCC[C@@H](NC(=O)N1C(=O)C(CC)(CC)[C@@H]1Oc1ccc(CCN(C)Cc2ccccc2)cc1)c1ccc(C)cc1` [R4=Me; R5=Bn; n=2, (4S)-3,3-Diethyl-1-[(R)-α-n-propyl-(4-methyl)benzylaminocarbonyl]-4-[(4-(2-benzylmethylamino)ethyl)phenoxy]azetidin-2-one], for which the kinact/KI was 1.32e+06 M⁻¹ s⁻¹.

Still in this assay, the particulars now being: pH 7.5, Table III; second order rate constant for inactivation of the enzyme; read-out: Kobs /[I].
Turning to `CCC[C@@H](NC(=O)N1C(=O)C(CC)(CC)[C@@H]1Oc1ccc(CN(CC)C(C)COC)c(OC)c1)c1ccc(C)cc1` (stereo partly shown), the kinact/KI turned out to be 1.3e+06 M⁻¹ s⁻¹. Same read-out and setting: the figure for `CCC[C@@H](NC(=O)N1C(=O)C(CC)(CC)[C@@H]1Oc1ccc(C(COC)N(C)C)cc1)c1ccc2c(c1)OCO2` (mixture of isomers) [3,3-Diethyl-1-[(R)-α-(n-propyl)-(3,4-dioxomethylene)benzylaminocarbonyl]-4-(S)-[4-{1-(RS)-(N,N-dimethylamino)-2-methoxyethyl}phenoxy]azetidin-2-one] is 1.9e+06 M⁻¹ s⁻¹; for `CCC[C@@H](NC(=O)N1C(=O)C(CC)(CC)[C@@H]1Oc1ccc(CN(CCOC)CCOC)c(Cl)c1)c1ccc(C)cc1` it is 1e+06 M⁻¹ s⁻¹. Consider `CCC[C@@H](NC(=O)N1C(=O)C(CC)(CC)[C@@H]1Oc1ccc(CN2CCN(C(=O)N(C)C)CC2)cc1)c1ccc2c(c1)OCO2` [(4S)-3,3-Diethyl-1-[(R)-α-n-propyl-3,4-methylenedioxy)benzylaminocarbonyl]-4-[(4-((4-diemthylaminocarbonyl)piperazin-1-yl)methyl)phenoxy]azetidin-2-one], for which the kinact/KI stood at 4e+06 M⁻¹ s⁻¹. Still for that read-out and setting: the figure for `CCC[C@@H](NC(=O)N1C(=O)C(CC)(CC)[C@@H]1Oc1ccc(CN(CC)C(C)COC)c(C)c1)c1ccc(C)cc1` (stereo partly shown) is 400000 M⁻¹ s⁻¹.
